Assay [1] relates to mouse phrenic nerve hemidiaphragm. Also noted: species or system CD-1 mice.
Assay [2] deals with mouse phrenic nerve hemi-diaphragm. Set-up: species or system CD-1 mice.

“Also recorded” adds a separate entry of the source.

As for `Nc1ccncc1` [4-AP, 4-aminopyridine], in assay [1], the “faster BoNT/A onset (time required for 50% paralysis)” value is reported as “approximately 25%”, the “increase of (initial) amplitude of muscle tension” value is on record as “approximately 2.5 fold” and the “onset of paralysis compared with 30 pM BoNT/A in the absence of 4-AP” value is on record as “progressed faster; also recorded: increased the onset of paralysis”.
In the case of `Nc1ccncc1N` [DAP, 3,4-diaminopyridine], in assay [2], the “higher concentration of toxin required to induce an equivalent reduction in time for 90% paralysis as caused by DAP” value came out at 6 times, the “muscle denervation compared with BoNT/E alone” value is recorded as “faster muscle denervation”, the “muscle tension response / neurotransmission” value was “elevated muscle tension response; also recorded: enhanced neurotransmission” and the onset of neuroparalysis entry was “faster onset of neuroparalysis”. In addition, in assay [2], the “reduction of the therapeutically effective amount of BoNT/E compared with BoNT/E administered alone” value is 25-600%, the “time taken for 50% paralysis (TTP50)” value was “faster time”, the “time taken for 90% paralysis (TTP90)” value is “faster time” and the “uptake of BoNT/E” value is on record as “increased uptake”.

Source of the values: patent publication US20220096609A1 (priority 2019, published 2022).
